The text below walks through data of US10336702B2, “Pharmaceutically active compounds” (BERGENBIO ASA, priority 2015, dated 2019).

A value given as a limit tells only on which side of the number the result lay.

For one assay, the target named is T1, p-Akt3 in WM115 cells (Homo sapiens, UniProt Q9Y243).
T1 construct: SureFire assays to detect cellular p-Akt1, p-Akt2 and p-Akt3 levels in WM115 cells (Akt2/3) and LNCaP cells (Akt1); endogenous in cells; host or cells: WM115 (ECACC 91061232), insulin-stimulated
T1 sequence (Q9Y243 whole entry): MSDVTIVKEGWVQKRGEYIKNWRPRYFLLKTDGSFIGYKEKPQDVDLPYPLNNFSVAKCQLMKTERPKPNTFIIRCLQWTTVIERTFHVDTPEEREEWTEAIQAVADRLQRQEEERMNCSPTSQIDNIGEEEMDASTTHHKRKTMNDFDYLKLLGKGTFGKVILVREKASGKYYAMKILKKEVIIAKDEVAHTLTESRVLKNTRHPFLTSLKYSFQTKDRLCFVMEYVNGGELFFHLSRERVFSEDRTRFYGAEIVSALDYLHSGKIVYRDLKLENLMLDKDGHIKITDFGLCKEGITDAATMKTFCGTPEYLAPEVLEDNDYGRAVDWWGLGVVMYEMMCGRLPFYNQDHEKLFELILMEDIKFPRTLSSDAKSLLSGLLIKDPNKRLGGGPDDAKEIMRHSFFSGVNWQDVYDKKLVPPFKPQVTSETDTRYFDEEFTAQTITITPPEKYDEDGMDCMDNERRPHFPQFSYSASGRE
Put plainly: Phospho-Akt cellular SureFire assay, p-Akt3 in WM115 cells. Format: cell-based. Conditions: insulin stimulated, read-out: Biological Assay 2 IC50 (nM) Akt3 WM115. The essentials:
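pThr308-Akt3 in lysates was quantified by bead-proximity SureFire detection, pairing a phospho-specific antibody with a total Akt3 antibody. Before lysis, WM115 cells in 0.1% FBS medium were treated for 15 min at 37 °C with compound (final DMSO 0.3%), following a 10 min stimulation with 100 nM insulin. IC50 was obtained by 4-parameter fitting.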

The target of the next assay is T2, p-Akt1 in LNCaP cells (Homo sapiens, UniProt P31749).
T2 construct: SureFire assays to detect cellular p-Akt1, p-Akt2 and p-Akt3 levels in WM115 cells (Akt2/3) and LNCaP cells (Akt1); endogenous in cells; host or cells: LNCaP (ECACC 89110211)
T2 sequence (P31749 whole entry): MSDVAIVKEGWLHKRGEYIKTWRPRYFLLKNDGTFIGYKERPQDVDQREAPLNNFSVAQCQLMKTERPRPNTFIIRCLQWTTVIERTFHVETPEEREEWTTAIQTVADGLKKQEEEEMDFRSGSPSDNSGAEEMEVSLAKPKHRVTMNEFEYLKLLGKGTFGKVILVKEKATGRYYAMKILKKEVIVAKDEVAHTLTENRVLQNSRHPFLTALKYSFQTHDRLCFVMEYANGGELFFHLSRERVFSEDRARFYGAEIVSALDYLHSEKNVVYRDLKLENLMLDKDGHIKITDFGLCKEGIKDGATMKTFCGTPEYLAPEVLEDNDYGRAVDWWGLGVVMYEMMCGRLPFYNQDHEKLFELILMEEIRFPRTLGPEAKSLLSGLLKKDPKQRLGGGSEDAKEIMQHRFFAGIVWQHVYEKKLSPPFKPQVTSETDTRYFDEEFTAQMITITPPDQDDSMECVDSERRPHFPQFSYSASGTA
Kind of assay: Phospho-Akt cellular SureFire assay, p-Akt1 in LNCaP cells. It counts as cell-based. Conditions: read-out: Biological Assay 2 IC50 (nM) Akt1 LNCaP. The essentials: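 Phospho-Thr308 Akt1 detected by AlphaScreen SureFire proximity beads in LNCaP lysates after 15 min compound treatment at 37 °C in 0.1% FBS medium, unstimulated, 0.3% DMSO. Cells plated at 5×10^4/well overnight; IC50 from a 4-parameter equation.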

In a further assay the target is T3, Akt3 (Homo sapiens, UniProt Q9Y243).
T3 construct: unspecified tag, removed (detagged) (cleaved yes); purchased SignalChem and Proteros (Akt3); Merck Millipore (PDK1) 14-452 (PDK1); none given for Akt3
T3 sequence (Q9Y243 whole entry): as the sequence (Q9Y243 whole entry) above
Kind of assay: Akt activation assay (PDK1-mediated activation, LANCE Ultra crosstide TR-FRET), Akt3. Format: biochemical. The conditions noted are these: read-out: Biological Assay 1 IC50 (nM) Akt3. The essentials:
(§1)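 This TR-FRET readout (Eu-anti-phospho-crosstide antibody, 665/615 nm) measured PDK1-driven activation of Akt. Compound was first preincubated with each Akt isoform: Akt1 5 nM; Akt2 15 nM SignalChem or 5 nM Proteros; Akt3 3 nM SignalChem or 5 nM Proteros. Reactions then ran 30 min with 5 nM PDK1, lipid vesicles containing 0.55 µM PtdIns(3,4,5)P3, 100 µM ATP and 100 nM crosstide at pH 7.5, and IC50 came from a 4-parameter equation.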

For the next assay, the target named is T4, p-Akt2 in WM115 cells (Homo sapiens, UniProt P31751).
T4 construct: SureFire assays to detect cellular p-Akt1, p-Akt2 and p-Akt3 levels in WM115 cells (Akt2/3) and LNCaP cells (Akt1); endogenous in cells; host or cells: WM115 (ECACC 91061232), insulin-stimulated
T4 sequence (P31751 whole entry): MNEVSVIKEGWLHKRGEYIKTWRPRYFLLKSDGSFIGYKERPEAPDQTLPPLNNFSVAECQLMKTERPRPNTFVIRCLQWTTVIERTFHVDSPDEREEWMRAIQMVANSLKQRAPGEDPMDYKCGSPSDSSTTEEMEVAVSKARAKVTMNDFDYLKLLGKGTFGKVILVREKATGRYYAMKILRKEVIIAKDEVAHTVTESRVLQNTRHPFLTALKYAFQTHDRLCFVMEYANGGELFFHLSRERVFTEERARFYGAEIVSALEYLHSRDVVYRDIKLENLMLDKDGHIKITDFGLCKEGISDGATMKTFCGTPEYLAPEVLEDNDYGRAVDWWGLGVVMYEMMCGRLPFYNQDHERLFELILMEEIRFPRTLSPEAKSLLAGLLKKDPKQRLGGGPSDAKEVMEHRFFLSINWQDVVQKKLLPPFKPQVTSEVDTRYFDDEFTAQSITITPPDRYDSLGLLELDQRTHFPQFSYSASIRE
Kind of assay: Phospho-Akt cellular SureFire assay, p-Akt2 in WM115 cells. Conditions: insulin stimulated, read-out: Biological Assay 2 IC50 (nM) Akt2 WM115. Format: cell-based. The essentials:
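Readout is a bead-proximity SureFire assay pairing a pThr308 Akt antibody with a total Akt2 antibody, lysate and beads incubated 2 h plus 2 h at room temperature in the dark. Before lysis, serum-starved WM115 cells received 100 nM insulin (10 min), then test compound (15 min, 0.3% DMSO); IC50 by 4-parameter equation.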

The target of a further assay is T5, Akt1 (Homo sapiens, UniProt P31749).
T5 construct: unspecified tag, removed (detagged) (cleaved yes); purchased SignalChem and Proteros (Akt1); Merck Millipore (PDK1) 14-452 (PDK1); none given for Akt1
T5 sequence (P31749 whole entry): as the sequence (P31749 whole entry) above
Put plainly: Akt activation assay (PDK1-mediated activation, LANCE Ultra crosstide TR-FRET), Akt1. It counts as biochemical. The conditions noted are these: read-out: Biological Assay 1 IC50 (nM) Akt1. The essentials: as §1

In another assay the target is T6, Akt2 (Homo sapiens, UniProt P31751).
T6 construct: unspecified tag, removed (detagged) (cleaved yes); purchased SignalChem and Proteros (Akt2); Merck Millipore (PDK1) 14-452 (PDK1); none given for Akt2
T6 sequence (P31751 whole entry): as the sequence (P31751 whole entry) above
Put plainly: Akt activation assay (PDK1-mediated activation, LANCE Ultra crosstide TR-FRET), Akt2. Format: biochemical. The conditions noted are these: read-out: Biological Assay 1 IC50 (nM) Akt2. The essentials:
as §1

Consider `CC(=O)N(C)[C@H]1CC[C@H](CC(=O)Nc2cc(-c3ccccc3)c(-c3ccc(C4(N)CC4)cc3)nn2)CC1` [Example 72, N-(6-(4-(1-aminocyclopropyl)phenyl)-5-phenylpyridazin-3-yl)-2-(trans-4-(N-methylacetamido)cyclohexyl)acetamide], for which the IC50 on p-Akt3 in WM115 cells was 35 nM; at p-Akt1 in LNCaP cells, above 7500 nM; on Akt3, 10 nM; at p-Akt2 in WM115 cells it was 1400 nM; at Akt1 it was above 22000 nM; on Akt2, 460 nM.
Turning to `CCC(=O)N(C)[C@H]1CC[C@H](CC(=O)Nc2cnc(-c3ccc(C4(N)CC4)c(F)c3)c(-c3ccccc3)c2)CC1` [Example A89, N-(trans-4-(2-((6-(4-(1-aminocyclopropyl)-3-fluorophenyl)-5-phenylpyridin-3-yl)amino)-2-oxoethyl)cyclohexyl)-N-methylpropionamide], the IC50 is 130 nM at p-Akt3 in WM115 cells; above 30000 nM on p-Akt1 in LNCaP cells; 80 nM at Akt3; 8300 nM on p-Akt2 in WM115 cells; above 30000 nM on Akt1; 4000 nM at Akt2.
For the compound `NC1(c2ccc(-c3ncc(NC(=O)C[C@H]4CC[C@H](N5CCOCC5)CC4)cc3-c3ccsc3)cc2)CCC1` [Example 38, N-(6-(4-(1-aminocyclobutyl)phenyl)-5-(thiophen-3-yl)pyridin-3-yl)-2-(trans-4-morpholinocyclohexyl)acetamide], the IC50 on p-Akt3 in WM115 cells came out at 92 nM; on p-Akt1 in LNCaP cells it was 7000 nM; at Akt3, 560 nM; on p-Akt2 in WM115 cells, 3000 nM; at Akt1 it was 9000 nM; on Akt2 it was 1900 nM.
In the case of `CC(C)C(=O)N(C)[C@H]1CC[C@H](CC(=O)Nc2cc(-c3ccccc3)c(-c3ccc(C(C)(C)N)cc3)nn2)CC1` [Example A85, N-(trans-4-(2-((6-(4-(2-aminopropan-2-yl)phenyl)-5-phenylpyridazin-3-yl)amino)-2-oxoethyl)cyclohexyl)-N-methylisobutyramide], the IC50 is 270 nM at p-Akt3 in WM115 cells; above 20000 nM at p-Akt1 in LNCaP cells; 74 nM at Akt3; 8800 nM on p-Akt2 in WM115 cells; above 30000 nM at Akt1; 3400 nM on Akt2.
Regarding `NC1(c2ccc(-c3nnc(NC(=O)C[C@H]4CC[C@H](N5CCOC5=O)CC4)cc3-c3ccccc3)cc2)CCC1` [Example 66, N-(6-(4-(1-aminocyclobutyl)phenyl)-5-phenylpyridazin-3-yl)-2-(trans-4-(2-oxooxazolidin-3-yl)cyclohexyl)acetamide], the IC50 at p-Akt3 in WM115 cells is 48 nM; at p-Akt1 in LNCaP cells, 9800 nM; on Akt3, 5 nM; on p-Akt2 in WM115 cells, 940 nM; on Akt1, 7200 nM; at Akt2, 150 nM.
Regarding `CC(=O)N(C)[C@H]1CC[C@H](CC(=O)Nc2cc(-c3ccccc3)c(-c3ccc([C@]4(N)C[C@](C)(O)C4)cc3)nn2)CC1` [Example 57, N-(6-(4-(trans-1-amino-3-hydroxy-3-methylcyclobutyl)phenyl)-5-phenylpyridazin-3-yl)-2-(trans-4-(N-methylacetamido)cyclohexyl)acetamide], the half-inhibitory concentration (IC50) at p-Akt3 in WM115 cells is 8 nM; at p-Akt1 in LNCaP cells, 5300 nM; on Akt3 it was 7 nM; on p-Akt2 in WM115 cells, 600 nM; on Akt1, 1600 nM; on Akt2 it was 190 nM.
Take `CC(C)(N)c1ccc(-c2nnc(NC(=O)C[C@H]3CC[C@H](N4CCOC4=O)CC3)nc2-c2ccccc2)cc1` [Example 69, N-(6-(4-(2-aminopropan-2-yl)phenyl)-5-phenyl-1,2,4-triazin-3-yl)-2-(trans-4-(2-oxooxazolidin-3-yl)cyclohexyl)acetamide]: the IC50 was 480 nM on p-Akt3 in WM115 cells; above 30000 nM at p-Akt1 in LNCaP cells; 1800 nM at Akt3; above 30000 nM at p-Akt2 in WM115 cells; above 30000 nM at Akt1; above 30000 nM at Akt2.
`CCCC(=O)N[C@H]1CC[C@H](CC(=O)Nc2cnc(-c3ccc(C4(N)CC4)cc3)c(-c3ccccc3)c2)CC1` [Example A41, N-(trans-4-(2-((6-(4-(1-aminocyclopropyl)phenyl)-5-phenylpyridin-3-yl)amino)-2-oxoethyl)cyclohexyl)butyramide]: the IC50 on p-Akt3 in WM115 cells is 59 nM; on p-Akt1 in LNCaP cells, 3600 nM; on Akt3, 75 nM; at p-Akt2 in WM115 cells it was 840 nM; at Akt1 it was 11000 nM; on Akt2, 370 nM.
As to `CC(=O)N(C)[C@H]1CC[C@H](CC(=O)Nc2cnc(-c3ccc(C(C)(C)N)cc3)c(-c3ccccc3F)c2)CC1` [Example 9, N-(6-(4-(2-aminopropan-2-yl)phenyl)-5-(2-fluorophenyl)pyridin-3-yl)-2-(trans-4-(N-methylacetamido)cyclohexyl)acetamide], the IC50 at p-Akt3 in WM115 cells was 110 nM; on p-Akt1 in LNCaP cells it was above 30000 nM; at Akt3, 150 nM; at p-Akt2 in WM115 cells, 3500 nM; on Akt1, above 30000 nM; on Akt2 it was 2500 nM.
For `COC(=O)N(C)[C@H]1CC[C@H](CC(=O)Nc2cc(-c3ccsc3)c(-c3ccc(C(C)(C)N)cc3)nn2)CC1` [Example A69, Methyl (trans-4-(2-((6-(4-(2-aminopropan-2-yl)phenyl)-5-(thiophen-3-yl)pyridazin-3-yl)amino)-2-oxoethyl)cyclohexyl)(methyl)carbamate], the IC50 was 710 nM at p-Akt3 in WM115 cells; above 30000 nM on p-Akt1 in LNCaP cells; 220 nM at Akt3; above 30000 nM at p-Akt2 in WM115 cells; above 30000 nM at Akt1; 12000 nM at Akt2.
On to `CN(C1CCC(CC(=O)Nc2cnc(-c3ccc(C(C)(C)N)cc3)c(-c3ccccc3)c2)CC1)C1(C)COC1` (stereo not drawn) [Example 35, N-(6-(4-(2-aminopropan-2-yl)phenyl)-5-phenylpyridin-3-yl)-2-(4-(methyl(3-methyloxetan-3-yl)amino)cyclohexyl)acetamide], for which the IC50 at p-Akt3 in WM115 cells is 1500 nM; on p-Akt1 in LNCaP cells, above 30000 nM; on Akt3 it was 17000 nM; at p-Akt2 in WM115 cells, 17000 nM; on Akt1, above 30000 nM; at Akt2 it was 25000 nM.
For `CCOC(=O)N(C)[C@H]1CC[C@H](CC(=O)Nc2cnc(-c3ccc(C(C)(C)N)cc3)c(-c3ccccc3)c2)CC1` [Example A99, Ethyl (trans-4-(2-((6-(4-(2-aminopropan-2-yl)phenyl)-5-phenylpyridin-3-yl)amino)-2-oxoethyl)cyclohexyl)(methyl)carbamate], the IC50 is 440 nM on p-Akt3 in WM115 cells; above 30000 nM at p-Akt1 in LNCaP cells; 130 nM on Akt3; 7800 nM at p-Akt2 in WM115 cells; above 27000 nM at Akt1; 3000 nM on Akt2.
Regarding `C[C@]1(O)C[C@@](N)(c2ccc(-c3nnc(NC(=O)C[C@H]4CC[C@H](N5CCOC5=O)CC4)cc3-c3ccccc3)cc2)C1` [Example 58, N-(6-(4-(trans-1-amino-3-hydroxy-3-methylcyclobutyl)phenyl)-5-phenylpyridazin-3-yl)-2-(trans-4-(2-oxooxazolidin-3-yl)cyclohexyl)acetamide], the IC50 on p-Akt3 in WM115 cells amounted to 8 nM; at p-Akt1 in LNCaP cells, 4000 nM; on Akt3 it was 3 nM; on p-Akt2 in WM115 cells, 750 nM; on Akt1 it was 1300 nM; on Akt2 it was 98 nM.
Take `CC(=O)NC1CCC(CC(=O)Nc2cnc(-c3ccc([C@]4(N)C[C@](C)(O)C4)cc3)c(-c3ccccc3)c2)CC1` (stereo partly drawn) [Example 2, 2-(trans-4-acetamidocyclohexyl)-N-(6-(4-(trans-1-amino-3-hydroxy-3-methylcyclobutyl)phenyl)-5-phenylpyridin-3-yl)acetamide]: the IC50 is 150 nM at p-Akt3 in WM115 cells; 8700 nM on p-Akt1 in LNCaP cells; 20 nM at Akt3; 4400 nM on p-Akt2 in WM115 cells; 980 nM at Akt1; 94 nM at Akt2.
